From patent US12414948B2, “Methods” (INTRA-CELLULAR THERAPIES, INC., priority 2022, dated 2025)

What was measured:
Sprague-Dawley rats = experiment: Open Field Test (OFT), locomotion; assay type: in vivo, rat; settings: for Open field track length: rats given LPS 1 mg/kg SC, label LPS = LPS + Vehicle, label Luma = Luma 1 mg/kg IP before and after LPS, text: open field track length in meters
Procedure: Behavioral Evaluation. All behavioral tests are performed in the morning with adult male Sprague-Dawley rats (n=9-11 per group for the experiments with LPS, and n=13-14 per group for the naïve rats).
Open Field Test (OFT). Rats are placed in an open field box (76.5×76.5×40 cm^3) under dim lighting and locomotor activity over a 10 minute period is measured using ANY-Maze Software (Stoelting Co., Wood Dale, IL).
Locomotion in an open field (track length in meters) is also measured as a control. As shown in the following table, locomotor activity is […] regardless of the group: […]

[1] = tested on: hippocampal gene expression (NanoString gene sets and genes); experiment: NanoString nCounter hippocampal gene expression after co-injection of LPS and lumateperone; assay type: in vivo, mouse
Description: NanoString. The mouse neuropathology panel includes 770 genes associated with themes of neurotransmission, neuron-glia interaction, neuroplasticity, cell structure integrity, neuroinflammation and metabolism. A total of 13 housekeeping genes are used for expression normalization (Aars: NM_146217.4, Asb10: NM_080444.4, Ccdc127: NM_024201.3, Cnot10: NM_153585.5, Csnk2a2: NM_009974.3, Fam104a: NM_138598.5, Gusb: NM_010368.1, Lars: NM_134137.2, Mto1: NM_026658.2, Supt7l: NM_028150.1, Tada2b: NM_001170454.1:3224, Tbp: NM_013684.3:70, and Xpnpep1: NM_133216.3:1826, see FIG. 1-1). Hippocampal RNA is extracted using the Qiagen microkit (Qiagen) and is evaluated by the Agilent 2100 Bioanalyzer (Agilent Technologies, Santa Clara, CA) to assess RNA concentration, quality, and integrity. Sample preparation, hybridization, and detection (100 ng per sample, n=5-6 per group) are carried out according to NanoString manufacturer's instructions (NanoString Technologies, Seattle, WA). The normalized data are transformed to log 2 score to express the fold change. NanoString results (raw and normalized counts) are derived from RCC files using the nSolver software (version 2.6; NanoString Technologies). A complementary gene software analysis tool, ROSALIND® Advanced Analysis Software (NanoString Technologies), is also used, which provides comprehensive free cloud-based data analysis for nCounter data by directly analyzing raw RCC files generated from NanoString. Data are imported into ROSALIND® Advanced Analysis Software for normalization, calculation of fold-changes, P values, identification of enriched pathways, and heatmaps.
It is calculated similarly to a undirected global significance score, but it takes into account the sign of the t-statistic. Scores were calculated by nSolver software, using the control group as a reference.

[2] = LPS 500 μg/kg-challenged mice, hippocampus 2 h, label LPS = LPS alone, label Luma = LPS + Luma 3 mg/kg, vs control group
[3] = mice, hippocampus 2 h, Luma 3 mg/kg alone (no LPS), vs control group

With `CN1CCN2c3c(cccc31)[C@@H]1CN(CCCC(=O)c3ccc(F)cc3)CC[C@@H]12` [Luma, lumateperone] the OFT locomotion (Sprague-Dawley rats; naïve rats, Luma 1 mg/kg IP on days 1 and 3, 10 minutes) was 32.8 ± 10.2 m, the “Open field track length” value (Sprague-Dawley rats) was 12.27 and the “Directed global significance score: DNA damage” value [1, 2] was 0.042. For the same compound, the “Directed global significance score: Inflammatory signaling” value [1, 2] was −0.93, the “Directed global significance score: Lipid metabolism” value [1, 2] was 0.89 and the “Directed global significance score: Oligodendrocyte function” value [1, 2] was 0.48. For the same compound, the “Genes that promote inflammation (e.g., Osmr, Tnfrsf1a, Tnfrsf11b, Prl, Il1r1), cytokine-specific gene expression” value ([1]; ROSALIND analysis, LPS+Luma versus LPS alone, filter P<0.04999, mice hippocampus) was “significantly downregulates”, the “Directed global significance score: Adaptive immune response” value [1, 3] was 0.344 and the “Directed global significance score: Angiogenesis” value [1, 3] was 0.616. For the same compound, the “Directed global significance score: Apoptosis” value [1, 3] was −0.442, the “Directed global significance score: Astrocyte function” value [1, 3] was −0.837 and the “Directed global significance score: Autophagy” value [1, 3] was −0.731. For the same compound, the “Directed global significance score: Carbohydrate metabolism” value [1, 3] was −0.837, the “Directed global significance score: Cell cycle” value [1, 3] was −0.75 and the “Directed global significance score: Cellular stress” value [1, 3] was −0.432. For the same compound, the “Directed global significance score: Cytokine signaling” value [1, 3] was −0.543, the “Directed global significance score: DNA damage” value [1, 3] was −0.614 and the “Directed global significance score: Epigenetic regulation” value [1, 3] was 0.729. The “Directed global significance score: Growth factor signaling” value [1, 3] was 0.226, the “Directed global significance score: Inflammatory signaling” value [1, 3] was −1.032 and the “Directed global significance score: Innate immune response” value [1, 3] was −0.611. The “Directed global significance score: Insulin signaling” value [1, 3] was 0.858, the “Directed global significance score: Lipid metabolism” value [1, 3] was −0.818 and the “Directed global significance score: Matrix remodeling” value [1, 3] was −0.4. For the same compound, the “Directed global significance score: Microglia function” value [1, 3] was 0.466, the “Directed global significance score: Notch” value [1, 3] was 0.834 and the “Directed global significance score: Oligodendrocyte function” value [1, 3] was −1.176. The “Directed global significance score: Wnt” value [1, 3] was 0.9.

For “lipopolysaccharide [LPS, reference compound]”, the “Open field track length” value (Sprague-Dawley rats) was 12.81, the “Directed global significance score: Adaptive immune response” value [1, 2] was 0.571 and the “Directed global significance score: Angiogenesis” value [1, 2] was −0.144. For the same compound, the “Directed global significance score: Apoptosis” value [1, 2] was 0.915, the “Directed global significance score: Astrocyte function” value [1, 2] was 1.391 and the “Directed global significance score: Autophagy” value [1, 2] was 0.588. For the same compound, the “Directed global significance score: Carbohydrate metabolism” value [1, 2] was 0.507, the “Directed global significance score: Cell cycle” value [1, 2] was −0.148 and the “Directed global significance score: Cellular stress” value [1, 2] was 0.499. For the same compound, the “Directed global significance score: Cytokine signaling” value [1, 2] was 0.993, the “Directed global significance score: DNA damage” value [1, 2] was 0.578 and the “Directed global significance score: Epigenetic regulation” value [1, 2] was 0.312. The “Directed global significance score: Growth factor signaling” value [1, 2] was 0.76, the “Directed global significance score: Inflammatory signaling” value [1, 2] was 1.086 and the “Directed global significance score: Innate immune response” value [1, 2] was 0.939. The “Directed global significance score: Insulin signaling” value [1, 2] was 0.28, the “Directed global significance score: Lipid metabolism” value [1, 2] was −0.192 and the “Directed global significance score: Matrix remodeling” value [1, 2] was −0.583. The “Directed global significance score: Microglia function” value [1, 2] was 0.377, the “Directed global significance score: Neurons and neurotransmission” value [1, 2] was −0.422 and the “Directed global significance score: Notch” value [1, 2] was 0.876. The “Directed global significance score: Oligodendrocyte function” value [1, 2] was 0.181 and the “Directed global significance score: Wnt” value [1, 2] was −0.476.
